Calls of active or inactive are those of the source. The rule behind the calls is not given here.
Columns and labels:
[1] = tested on: Mycobacterium tuberculosis; experiment: (§1) Inhibition of Mycobacterium tuberculosis ThyX using [5-3H]dUMP as substrate after 10 mins by liquid scintillation counting analysis
[2] = tested on: Mycobacterium tuberculosis; experiment: Inhibition of Mycobacterium tuberculosis ThyA using dUMP as substrate up to 100 uM measured immediatedly and at 10 mins post mTHF addition by spectrophotometric analysis
[3] = as §1
[4] = tested on: Mycobacterium tuberculosis; experiment: Activation of Mycobacterium tuberculosis ThyA using dUMP as substrate up to 100 uM measured immediatedly and at 10 mins post mTHF addition by spectrophotometric analysis

SMILES	inhibition [1]	inhibition [2]	IC50 [3] [µM]	Activity [4]
CCCCCCCCCCCCOCc1cn([C@H]2C[C@H](N=[N+]=[N-])[C@@H](COP(=O)(O)O)O2)c(=O)[nH]c1=O	inactive	inactive	–	–
CCCCCCCCCCOCc1cn([C@H]2C[C@H](O)[C@@H](COP(=O)(O)O)O2)c(=O)[nH]c1=O	inactive	inactive	–	–
CCCCCCCCCCCCOCc1cn([C@H]2C[C@H](O)[C@@H](COP(=O)(O)O)O2)c(=O)[nH]c1=O	inactive	inactive	–	–
COCCOCCOCCOCc1cn([C@H]2C[C@H](O)[C@@H](COP(=O)(O)O)O2)c(=O)[nH]c1=O	inactive	inactive	–	–
CCCCCCCCCCCOCc1cn([C@H]2C[C@H](O)[C@@H](COP(=O)(O)O)O2)c(=O)[nH]c1=O	–	inactive	8.32	Active
CCCCCCCCc1cn(Cc2cn([C@H]3C[C@H](O)[C@@H](COP(=O)(O)O)O3)c(=O)[nH]c2=O)nn1	inactive	inactive	–	–
CCCCCCCCCCc1cn(Cc2cn([C@H]3C[C@H](O)[C@@H](COP(=O)(O)O)O3)c(=O)[nH]c2=O)nn1	inactive	inactive	–	–
